Measurements: the CheMixHub ionic liquid set

Assay: xn = mol fraction of the nth substance listed

CCOC(=O)C[n+]1ccn(C)c1.[Cl-] + NC(N)=O
101 kPa
Conditions | electrical conductivity, 298 K [S/m] | electrical conductivity, 308 K [S/m] | electrical conductivity, 318 K [S/m] | electrical conductivity, 328 K [S/m] | electrical conductivity, 338 K [S/m] | viscosity, 298.15 K [mPa·s]
x1 = 0.4945 | 0.282 | 0.347 | 0.414 | 0.489 | 0.602 | 567
x1 = 0.5947 | 0.346 | 0.433 | 0.51 | 0.607 | 0.722 | 482
x1 = 0.7459 | 0.419 | 0.525 | 0.631 | 0.741 | 0.883 | 415
x1 = 1 | 0.509 | 0.636 | 0.764 | 0.916 | 1.06 | 349

CC[n+]1ccn(C)c1.CS(=O)(=O)[O-] + CC[n+]1ccn(C)c1.N#C[S-] + O
viscosity [mPa·s], 100 kPa
Conditions | 298.15 K | 323.15 K
x2 = 0, x1 = 1 | 166.9 | 46.66
x2 = 0.03875, x1 = 0.1179 | 5.47 | 2.895
x2 = 0.0437, x1 = 0.133 | 6.29 | 3.29
x2 = 0.04778, x1 = 0.1454 | 6.96 | 3.598
x2 = 0.04973, x1 = 0.05117 | 2.902 | 1.645
x2 = 0.07374, x1 = 0.07586 | 4.308 | 2.366
x2 = 0.08472, x1 = 0.2579 | 14.08 | 6.86
x2 = 0.09552, x1 = 0.09828 | 5.65 | 3.039
x2 = 0.132, x1 = 0.4018 | 27.86 | 12.33
x2 = 0.1688, x1 = 0.1737 | 10.72 | 5.46
x2 = 0.1857, x1 = 0.5652 | 56.4 | 21.34
x2 = 0.1882, x1 = 0.06242 | 5.9 | 3.31
x2 = 0.2473, x1 = 0.7527 | 102.6 | 32.99
x2 = 0.2641, x1 = 0.2717 | 19.62 | 9.31
x2 = 0.3704, x1 = 0.3811 | 35.52 | 15.09
x2 = 0.3722, x1 = 0.1235 | 12.81 | 6.61
x2 = 0.4929, x1 = 0.5071 | 63.5 | 23.49
x2 = 0.5588, x1 = 0.1854 | 23.25 | 10.99
x2 = 0.7509, x1 = 0.2491 | 38.43 | 16.41

CC[S+](CC)CCOCC[S+](CC)CC.O=S(=O)([N-]S(=O)(=O)C(F)(F)F)C(F)(F)F.O=S(=O)([N-]S(=O)(=O)C(F)(F)F)C(F)(F)F + CC[n+]1ccn(C)c1.N#C[N-]C#N + O=S(=O)([N-]S(=O)(=O)C(F)(F)F)C(F)(F)F.[Li+]
100 kPa, x1 = 0.1609, x2 = 0.7379
Conditions | electrical conductivity [S/m]
298 K | 0.637
303 K | 0.742
313 K | 0.987
323 K | 1.28
333 K | 1.64
343 K | 2

CCCO + CC[n+]1ccccc1.N#C[N-]C#N
Conditions | viscosity [mPa·s]
288.15 K, 100 kPa, x1 = 1 | 2.51

CCCO + O + CCCCCCCCCCCCOS(=O)(=O)[O-].[Na+]
298 K, 100 kPa, frequency 0.001 MHz
Conditions | electrical conductivity [S/m]
x1 = 0.01544, x3 = 0 | 0.00015
x1 = 0.02615, x2 = 0.9739 | 0.00015
x1 = 0.04738, x2 = 0.9526 | 0.00011
x1 = 0.07176, x2 = 0.9282 | 0.00012
x1 = 0.1087, x2 = 0.8913 | 0.00014

CCCC[n+]1ccn(C)c1.N#C[N-]C#N + F[B-](F)(F)F.[Li+]
101 kPa, x1 = 1
Conditions | electrical conductivity [S/m]
288.15 K | 0.596
298.15 K | 0.925
333.15 K | 2.77

CC(=O)[O-].CC[n+]1ccn(C)c1 + CCS(=O)(=O)[O-].[NH4+]
101 kPa, x2 = 0
Conditions | electrical conductivity [S/m] | viscosity [mPa·s]
303.15 K | 0.374 | 93.6
318.15 K | 0.76 | 44.2

CCCCc1n(S(=O)(=O)O)cc[n+]1S(=O)(=O)O.O=C([O-])C(F)(F)F + CO
electrical conductivity [S/m], 101 kPa
Conditions | x1 = 0.0104 | x1 = 0.0205 | x1 = 0.02551
298.15 K | 1.59 | 2.16 | –
308.15 K | – | – | 2.28

CC[n+]1ccn(C)c1C.O=S(=O)([N-]S(=O)(=O)C(F)(F)F)C(F)(F)F + O=C1CCCO1
100 kPa, frequency 0.005 MHz
Conditions | electrical conductivity [S/m]
293.15 K, x2 = 0.3071 | 0.628
293.15 K, x2 = 0.7999 | 1.36
293.15 K, x2 = 0.9507 | 0.925
298.15 K, x2 = 0 | 0.383
298.15 K, x2 = 0.6999 | 1.42
298.15 K, x2 = 0.7999 | 1.52
308.15 K, x2 = 0.4996 | 1.34
308.15 K, x2 = 0.8999 | 1.72
313.15 K, x2 = 0.8999 | 1.84
318.15 K, x2 = 0.4996 | 1.69
323.15 K, x2 = 0 | 0.92
323.15 K, x2 = 0.0999 | 1.07
323.15 K, x2 = 0.5987 | 2.02
323.15 K, x2 = 0.8474 | 2.3
323.15 K, x2 = 0.9507 | 1.4

CCCC[n+]1ccn(C)c1.N#C[S-] + CCCC[n+]1ccn(C)c1.O=S(=O)([N-]S(=O)(=O)C(F)(F)F)C(F)(F)F
100 kPa
Conditions | viscosity [mPa·s]
283.15 K, x2 = 0.25 | 133.5
288.15 K, x2 = 0 | 104.5

CCCO + CC[n+]1ccn(CCOC)c1.N#C[S-]
100 kPa, x2 = 0
Conditions | viscosity [mPa·s]
288.15 K | 2.49
293.15 K | 2.2
298.15 K | 1.95
303.15 K | 1.732
308.15 K | 1.545
313.15 K | 1.382
318.15 K | 1.24

CCCC[n+]1ccn(C)c1.N#C[N-]C#N + F[P-](F)(F)(F)(F)F.[Li+]
101 kPa, x1 = 1
Conditions | electrical conductivity [S/m]
288.15 K | 0.596
298.15 K | 0.925
333.15 K | 2.77

Cn1cc[n+](CCC[n+]2ccn(C)c2)c1.[Br-].[Br-] + O=C[C@H](O)[C@@H](O)[C@H](O)[C@H](O)CO + O
viscosity [mPa·s], 101 kPa
Conditions | 293.15 K | 298.15 K | 303.15 K | 308.15 K | 313.15 K
x1 = 0.0005066, x2 = 0.001798 | 1.061 | 0.945 | 0.846 | 0.764 | 0.696
x1 = 0.0005575, x2 = 0.001798 | 1.059 | 0.942 | 0.844 | 0.765 | 0.695
x1 = 0.0005912, x2 = 0 | 1.016 | 0.905 | 0.812 | 0.734 | 0.669
x1 = 0.0006805, x2 = 0 | 1.016 | 0.904 | 0.811 | 0.734 | 0.67
x1 = 0.0007464, x2 = 0.001797 | 1.065 | 0.947 | 0.848 | 0.768 | 0.698
x1 = 0.0007474, x2 = 0 | 1.019 | 0.908 | 0.816 | 0.739 | 0.673
x1 = 0.0009122, x2 = 0 | 1.025 | 0.913 | 0.82 | 0.74 | 0.675
x1 = 0.0009147, x2 = 0.001797 | 1.073 | 0.954 | 0.856 | 0.773 | 0.704
x1 = 0.001085, x2 = 0.001797 | 1.079 | 0.96 | 0.86 | 0.779 | 0.707
x1 = 0.001235, x2 = 0.001797 | 1.086 | 0.966 | 0.867 | 0.78 | 0.71
x1 = 0.00129, x2 = 0 | 1.043 | 0.927 | 0.832 | 0.754 | 0.686
x1 = 0.001332, x2 = 0.001796 | 1.083 | 0.963 | 0.863 | 0.782 | 0.712
x1 = 0.00144, x2 = 0 | 1.05 | 0.935 | 0.84 | 0.758 | 0.693
x1 = 0.001476, x2 = 0.001796 | 1.087 | 0.966 | 0.866 | 0.784 | 0.713
x1 = 0.001591, x2 = 0.001796 | 1.093 | 0.97 | 0.87 | 0.786 | 0.715
x1 = 0.001838, x2 = 0 | 1.066 | 0.948 | 0.85 | 0.768 | 0.7
x1 = 0.002094, x2 = 0 | 1.071 | 0.955 | 0.855 | 0.77 | 0.702
x1 = 0.002204, x2 = 0 | 1.071 | 0.955 | 0.857 | 0.774 | 0.705
x1 = 0.002491, x2 = 0 | 1.084 | 0.962 | 0.859 | 0.775 | 0.708

CC(=O)[O-].CC[n+]1ccn(C)c1 + CC(=O)[O-].[NH4+]
323.15 K, 101 kPa, x2 = 0
Conditions | electrical conductivity [S/m] | viscosity [mPa·s]
– | 0.918 | 35.7
